Assay results: the NIST ThermoML archive (doi:10.1016/j.fluid.2009.11.004)
Numbers after ± are expanded uncertainties.

Legend:
[1] = Liquid, Ebulliometric method (Recirculating still)
[2] = refractive index (Na D-line) (dimensionless); conditions: 298.15 K; 101.33 kPa; Liquid; Standard Abbe refractometry

## CCCC(C)C [2-methylpentane]
[1]; 290.34 K
  vapor or sublimation pressure: 20.3 ± 0.4 kPa
[1]; 299.7 K
  vapor or sublimation pressure: 30.13 ± 0.42 kPa
[1]; 307.12 K
  vapor or sublimation pressure: 40.39 ± 0.46 kPa
[1]; 312.92 K
  vapor or sublimation pressure: 50.23 ± 0.5 kPa
[1]; 317.93 K
  vapor or sublimation pressure: 60.24 ± 0.54 kPa
[1]; 322.26 K
  vapor or sublimation pressure: 70.13 ± 0.59 kPa
[1]; 326.15 K
  vapor or sublimation pressure: 80.11 ± 0.64 kPa
[1]; 329.74 K
  vapor or sublimation pressure: 90.32 ± 0.69 kPa
[1]; 333.37 K
  vapor or sublimation pressure: 101.76 ± 0.72 kPa
[2]
  refractive index: 1.3685 ± 0.0007

## CC1CCCC1 [methylcyclopentane]
[1]; 300.4 K
  vapor or sublimation pressure: 20.25 ± 0.4 kPa
[1]; 310.16 K
  vapor or sublimation pressure: 30.18 ± 0.41 kPa
[1]; 317.69 K
  vapor or sublimation pressure: 40.24 ± 0.45 kPa
[1]; 323.75 K
  vapor or sublimation pressure: 50.16 ± 0.49 kPa
[1]; 328.97 K
  vapor or sublimation pressure: 60.22 ± 0.53 kPa
[1]; 333.37 K
  vapor or sublimation pressure: 69.94 ± 0.58 kPa
[1]; 337.5 K
  vapor or sublimation pressure: 80.18 ± 0.62 kPa
[1]; 341.25 K
  vapor or sublimation pressure: 90.53 ± 0.68 kPa
[1]; 345.1 K
  vapor or sublimation pressure: 102.31 ± 0.7 kPa
[2]
  refractive index: 1.4067 ± 0.0007

## Cc1ccccc1C [1,2-dimethylbenzene]
[2]
  refractive index: 1.5028 ± 0.0007

## CCCCCC [hexane]
[2]
  refractive index: 1.3724 ± 0.0007

## Cc1ccsc1 [3-methylthiophene]
[2]
  refractive index: 1.5172 ± 0.0007

## CC1CCCCC1 [methylcyclohexane]
[1]; 325.39 K
  vapor or sublimation pressure: 20.25 ± 0.39 kPa
[1]; 336.27 K
  vapor or sublimation pressure: 30.47 ± 0.4 kPa
[1]; 344.1 K
  vapor or sublimation pressure: 40.07 ± 0.43 kPa
[1]; 350.71 K
  vapor or sublimation pressure: 49.96 ± 0.47 kPa
[1]; 356.44 K
  vapor or sublimation pressure: 60.05 ± 0.51 kPa
[1]; 361.45 K
  vapor or sublimation pressure: 70.17 ± 0.55 kPa
[1]; 365.75 K
  vapor or sublimation pressure: 79.96 ± 0.59 kPa
[1]; 369.98 K
  vapor or sublimation pressure: 90.64 ± 0.63 kPa
[1]; 373.9 K
  vapor or sublimation pressure: 101.6 ± 0.65 kPa
